{"source": "patent US10751337B2", "about": "“Preservative free ocular compositions and methods for using the same for treating dry eye disease and other eye disorders” (The Board of Trustees of the University of Illinois, priority 2015, dated 2020)", "key": {"[1]": {"test_system": "Meibomian gland dysfunction (MGD) in patients with chronic ocular Graft-Versus-Host-Disease (oGVHD)", "assay": "Treatment of chronic ocular GVHD patients with Meibomian gland dysfunction, SGA and CGI assessment (Example 2)"}, "[2]": {"test_system": "Sjogren dry eye syndrome", "conditions": "person; 0.15% twice a day in both eyes"}, "[3]": {"test_system": "Evaporative dry eye (EDE) attributable to LASIK refractive surgery", "conditions": "person after LASIK; eye drops 0.15% in both eyes; most recent follow up", "text": "The patient treated was a person with severe symptoms of ocular discomfort. The patient had undergone LASIK refractive surgery in both eyes. The prior treatment history was that the patient was on doxycycline pills, warm compresses, erythromycin ointment and intermittently on steroid eye drops. […] The patient instilled the eye drops on the surface of the eye and spread the excess eye drops to both eye lid margins."}, "[4]": {"test_system": "mixed dry eye disease (severe tear deficiency Meibomian gland dysfunction (MGD))", "conditions": "one patient"}, "[5]": {"test_system": "Non-Sjogren dry eye syndrome (Meibomian gland dysfunction)", "assay": "Treatment of a patient with non-Sjogren dry eye syndrome, MGD not due to ocular GVHD (Example 4)", "conditions": "person, 0.15% twice a day"}, "[6]": {"conditions": "ocular GVHD patients with MGD, summary statement"}}, "data": [{"molecule": "Brc1c(NC2=NCCN2)ccc2nccnc12", "note": "[brimonidine, 5-Bromo-N-(4,5-dihydro-1H-imidazol-2-yl) quinoxalin-6-amine]", "values": [{"measurement": "patients who did not report any change (SGA)", "setting": "[1]; 18 patients (n=2), 0.15% twice a day", "result": 11, "unit": "%"}, {"measurement": "patients who reported improvement (SGA)", "setting": "[1]; 18 patients (n=6), 0.15% twice a day", "result": 33, "unit": "%"}, {"measurement": "patients who reported much improvement (SGA)", "setting": "[1]; 18 patients (n=10), 0.15% twice a day", "result": 55, "unit": "%"}, {"measurement": "patients with moderate to marked improvements in CGI", "setting": "[1]; 18 patients (n=15), 0.15% twice a day", "result": 83, "unit": "%"}, {"measurement": "patients clinically worsened (CGI)", "setting": "[1]; 18 patients, 0.15% twice a day", "result": "No patients had clinically worsened"}, {"measurement": "patients reporting worsening of symptoms or signs (SGA)", "setting": "[1]; 18 patients, 0.15% twice a day", "result": "No patients reported worsening of symptoms or signs"}, {"measurement": "tolerability of the eye drops", "setting": "[1]; 18 patients, 0.15% twice a day", "result": "easily tolerated"}, {"measurement": "Subjective Global Assessment (SGA), mean (±SD)", "setting": "[1]; 18 patients, five point scale (Much worse to Much improved), 0.15% one drop twice a day, followed 6 months or more", "result": "4.4±0.69"}, {"measurement": "Clinical Global Impression (CGI), mean (±SD)", "setting": "[1]; 18 patients, seven point scale (Marked worsening to Marked improvement), 0.15% twice a day", "result": "6.2±0.88"}, {"measurement": "patients tested with a beneficial effect", "setting": "[1]; [6]", "result": "approximately 90%"}, {"measurement": "side effects", "setting": "[1]; [6]", "result": "without significant side effects"}, {"measurement": "patient-reported symptoms and redness", "setting": "[2]", "result": "improvement in symptoms and redness"}, {"measurement": "patient-reported improvement of symptoms since starting treatment", "setting": "[3]", "result": 90, "unit": "%"}, {"measurement": "conjunctival and eyelid margin redness", "setting": "[4]; 0.15% aqueous solution twice a day to eyelash and eyelid margin area, 15 minutes after application", "result": "significant reduction"}, {"measurement": "patient-reported symptoms of ocular discomfort", "setting": "[4]; 0.15% aqueous solution twice a day, after applying", "result": "reduced"}, {"measurement": "side effects", "setting": "[5]", "result": "No side effects were reported"}, {"measurement": "tolerability of the drops", "setting": "[5]", "result": "tolerated well"}, {"measurement": "patient-reported redness of both eyes", "setting": "[5]; most recent follow up", "result": "reduction in redness of both eyes"}, {"measurement": "patient-reported symptoms of dryness and burning", "setting": "[5]; most recent follow up", "result": "reduction in symptoms of dryness and burning"}]}]}
